Our source for the IC50 values is patent US9394297B2, “Amides as pim inhibitors” (AMGEN INC., priority 2012, dated 2016).

The term IC50 denotes the concentration that inhibits the measured activity by half.

Like-named read-outs stand apart in the source and are kept apart here.

In one experiment the target is Pim-1 (Homo sapiens (Human), UniProt P11309). As to the kind of experiment: Pim-Mn enzyme assay (HTRF, 384-well), Pim-1. The experiment is classed as biochemical. As to conditions: read-out: Pim-1-Mn IC50 IP. (Time-resolved FRET reads energy transfer from a long-lived donor to a nearby acceptor.)
Chain of Pim-1 (P11309 whole entry): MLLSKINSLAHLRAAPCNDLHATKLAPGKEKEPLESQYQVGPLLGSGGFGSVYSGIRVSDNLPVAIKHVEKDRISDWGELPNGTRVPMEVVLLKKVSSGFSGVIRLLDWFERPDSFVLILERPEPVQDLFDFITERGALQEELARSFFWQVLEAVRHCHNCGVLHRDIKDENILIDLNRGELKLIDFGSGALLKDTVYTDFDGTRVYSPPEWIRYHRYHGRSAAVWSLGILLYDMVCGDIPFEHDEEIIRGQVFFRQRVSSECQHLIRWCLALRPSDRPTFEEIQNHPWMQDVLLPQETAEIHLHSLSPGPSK
For experiment [1], the system named is KMS-12-BM myeloma cell line. As to the kind of experiment: Pim KMS-12 cell assay (phospho-BAD S112 / total BAD, MSD).
In the next experiment the target is Pim-2 (Homo sapiens (Human), UniProt Q9P1W9). The experiment is described as follows: Pim-Mn enzyme assay (HTRF, 384-well), Pim-2. It is filed as biochemical. The following applies: Pim-2 enzyme 0.5 pM, ATP 1.5 μM, BAD (S112) 0.5 μM, HTRF, 22-point curve; read-out: Pim-2-Mn IC50 IP.
Chain of Pim-2 (Q9P1W9 whole entry): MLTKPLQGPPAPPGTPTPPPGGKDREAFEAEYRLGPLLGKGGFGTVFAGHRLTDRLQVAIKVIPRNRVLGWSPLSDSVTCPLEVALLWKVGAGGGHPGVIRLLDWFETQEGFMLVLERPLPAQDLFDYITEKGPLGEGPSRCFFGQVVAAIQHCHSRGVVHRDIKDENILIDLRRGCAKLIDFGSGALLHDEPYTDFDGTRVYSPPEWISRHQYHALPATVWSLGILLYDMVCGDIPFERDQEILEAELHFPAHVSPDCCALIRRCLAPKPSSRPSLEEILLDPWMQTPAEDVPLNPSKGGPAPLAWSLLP
The mark [2] stands for this setting: Pim-1 enzyme 5 pM, ATP 1.5 μM, BAD (S112) 0.5 μM, HTRF, 22-point curve.
Setting [3] is: Homo sapiens, KMS-12-BM, read-out: KMS-12-BM IC50 IP, KMS-12-BM cells, phospho-BAD (S112) vs total BAD, 1 hour 50 min with compound.
The mark [4] stands for this setting: read-out: KMS-12-BM IC50 IP, KMS-12-BM cells, phospho-BAD (S112) vs total BAD, 1 hour 50 min with compound.
The mark [5] stands for this setting: Homo sapiens, KMS-12-BM, read-out: KMS-12-BM IC50 IP.

In the case of `Cc1nc2cccc(-c3cc4n(c3)CCNC4=O)c2nc1NC1(C)CC1` [Example 100, 7-(2-methyl-3-((1-methylcyclopropyl)amino)quinoxalin-5-yl)-3,4-dihydropyrrolo[1,2-a]pyrazin-1(2H)-one 2,2,2-trifluoroacetate], the 50% inhibitory concentration (IC50) at Pim-1 (setting [2]) is 1.34 nM; in experiment [1] (setting [3]) it was 144 nM; at Pim-2, 0.961 nM.

`CC1(C)COCCN1c1cnc2cccc(-c3cc4c([nH]3)CCNC4=O)c2n1` [Example 213, 2-(3-(3,3-dimethylmorpholino)quinoxalin-5-yl)-6,7-dihydro-1H-pyrrolo[3,2-c]pyridin-4(5H)-one]: the IC50 is 1.6 nM at Pim-1, 227 nM in experiment [1] (setting [3]) and 3.2 nM at Pim-2.

In the case of `Cc1nc2cccc(-c3cc4c([nH]3)CCNC4=O)c2nc1NCC(C)(C)N` [Example 70, 2-(3-((2-amino-2-methylpropyl)amino)-2-methyl-5-quinoxalinyl)-1,5,6,7-tetrahydro-4H-pyrrolo[3,2-c]pyridin-4-one], the figures for the half-inhibitory concentration (IC50) (on Pim-1 (setting [2]); in experiment [1] (setting [3]); at Pim-2) were 4.3 nM, 2910 nM and 6.3 nM, respectively.

On to `Cc1nc2cccc(-c3cc4c([nH]3)CCNC4=O)c2nc1NC1CC(O)C1` (stereo not drawn) [Example 72, 2-(3-((3-hydroxycyclobutyl)amino)-2-methyl-5-quinoxalinyl)-1,5,6,7-tetrahydro-4H-pyrrolo[3,2-c]pyridin-4-one], for which the IC50 on Pim-1 (setting [2]) worked out at 3.1 nM; in experiment [1] (setting [3]), 713 nM; at Pim-2, 1.9 nM.

For the molecule `CC1(Nc2cnc3cccc(-c4cc5c([nH]4)CCNC5=O)c3n2)CC1` [Example 211, 2-(3-((1-methylcyclopropyl)amino)quinoxalin-5-yl)-6,7-dihydro-1H-pyrrolo[3,2-c]pyridin-4(5H)-one], the IC50 on Pim-1 (setting [2]) amounted to 0.2 nM; in experiment [1] (setting [3]), 49.7 nM; at Pim-2, 0.3 nM.

Take `Cc1nc2cccc(-c3cc4c([nH]3)CCNC4=O)c2nc1NCC(C)(C)O` [Example 148, 2-(3-((2-hydroxy-2-methylpropyl)amino)-2-methylquinoxalin-5-yl)-6,7-dihydro-1H-pyrrolo[3,2-c]pyridin-4(5H)-one]: the values for the IC50 (on Pim-1 (setting [2]); in experiment [1] (setting [3]); at Pim-2) were 8 nM, 420 nM and 8.7 nM, respectively.

Regarding `Cc1nc2cccc(-c3cc4c([nH]3)CCNC4=O)c2nc1N[C@@H]1CCCNC1` [Example 75, 2-(2-methyl-3-((3R)-3-piperidinylamino)-5-quinoxalinyl)-1,5,6,7-tetrahydro-4H-pyrrolo[3,2-c]pyridin-4-one], the IC50 on Pim-1 (setting [2]) came to 0.6 nM; in experiment [1] (setting [3]) it was 892 nM; on Pim-2 it was 1.2 nM.

Turning to `CNc1nc2c(-c3cc4c([nH]3)CCNC4=O)cccc2nc1C` [Example 219, 2-(2-methyl-3-(methylamino)quinoxalin-5-yl)-6,7-dihydro-1H-pyrrolo[3,2-c]pyridin-4(5H)-one], the concentration for half-maximal inhibition (IC50) is 7.8 nM on Pim-1 (setting [2]), 346 nM in experiment [1] (setting [3]) and 4.1 nM on Pim-2.

Consider “2′-(3-(cyclopropylamino)-6-fluoro-2-methylquinoxalin-5-yl)-1′H-spiro[cyclopropane-1,6′-pyrrolo[3,4-b]pyrrol]-4′(5′H)-one [Example 283]”, for which the results for the IC50 (on Pim-1 (setting [2]); in experiment [1] (setting [4]); on Pim-2) were 3.3 nM, 199 nM and 0.8 nM, respectively.

Regarding `CN(c1cnc2cccc(-c3cc4c([nH]3)CCNC4=O)c2n1)C(C)(C)C` [Example 215, 2-(3-(tert-butyl(methyl)amino)quinoxalin-5-yl)-6,7-dihydro-1H-pyrrolo[3,2-c]pyridin-4(5H)-one], the figures for the IC50 (on Pim-1 (setting [2]); in experiment [1] (setting [5]); on Pim-2) were 0.6 nM, 153 nM and 0.7 nM, respectively.

In the case of `CC1(C)CN(c2cnc3cccc(-c4cc5c([nH]4)CCNC5=O)c3n2)CCN1` [Example 214, 2-(3-(3,3-dimethylpiperazin-1-yl)quinoxalin-5-yl)-6,7-dihydro-1H-pyrrolo[3,2-c]pyridin-4(5H)-one], the figures for the IC50 (at Pim-1 (setting [2]); in experiment [1] (setting [3]); on Pim-2) were 4.7 nM, 9870 nM and 58 nM, respectively.

For `Cc1nc2cccc(-c3cc4n(c3)CCNC4=O)c2nc1NC(C)(C)C` [Example 174, 7-(3-(tert-butylamino)-2-methylquinoxalin-5-yl)-3,4-dihydropyrrolo[1,2-a]pyrazin-1(2H)-one], the IC50 stood at 5.9 nM at Pim-1 (setting [2]), 336 nM in experiment [1] (setting [3]) and 3.5 nM at Pim-2.

As to `Cc1nc2cccc(-c3cc4c([nH]3)CCNC4=O)c2nc1NC1(C)CC1` [Example 202, 2-(2-methyl-3-((1-methylcyclopropyl)amino)quinoxalin-5-yl)-6,7-dihydro-1H-pyrrolo[3,2-c]pyridin-4(5H)-one], the half-maximal inhibitory concentration (IC50) on Pim-1 (setting [2]) was found to be 0.3 nM; in experiment [1] (setting [3]) it was 41.3 nM; on Pim-2, 0.3 nM.

As for `Cc1nc2cccc(-c3cc4c([nH]3)CCNC4=O)c2nc1NCC1(C)COC1` [Example 281, 2-(2-methyl-3-(((3-methyl-3-oxetanyl)methyl)amino)-5-quinoxalinyl)-1,5,6,7-tetrahydro-4H-pyrrolo[3,2-c]pyridin-4-one], the half-inhibitory concentration (IC50) amounted to 6.7 nM at Pim-1 (setting [2]), 533 nM in experiment [1] (setting [3]) and 2.8 nM at Pim-2.

Turning to `CCNc1nc2c(-c3cc4c([nH]3)CCNC4=O)cccc2nc1C` [Example 69, 2-(3-(ethylamino)-2-methyl-5-quinoxalinyl)-1,5,6,7-tetrahydro-4H-pyrrolo[3,2-c]pyridin-4-one], the IC50 on Pim-1 (setting [2]) was 3.4 nM; in experiment [1] (setting [5]), 223 nM; at Pim-2 it was 1.7 nM.

Take `Cc1nc2cccc(-c3cc4c([nH]3)CCNC4=O)c2nc1SC(C)(C)C` [Example 221, 2-(3-(tert-butylthio)-2-methylquinoxalin-5-yl)-6,7-dihydro-1H-pyrrolo[3,2-c]pyridin-4(5H)-one]: the IC50 at Pim-1 (setting [2]) was found to be 3.1 nM; in experiment [1] (setting [3]) it was 750 nM; on Pim-2, 4.3 nM.

On to `Cc1nc2cccc(-c3cc4c([nH]3)CCNC4=O)c2nc1NC1CCCCC1O` (racemic) [Example 205, 2-(3-((2-hydroxycyclohexyl)amino)-2-methylquinoxalin-5-yl)-6,7-dihydro-1H-pyrrolo[3,2-c]pyridin-4(5H)-one], for which the figures for the IC50 (at Pim-1 (setting [2]); in experiment [1] (setting [3]); on Pim-2) were 4.9 nM, 1140 nM and 4.5 nM, respectively.

`Cc1nc2cccc(-c3cc4c([nH]3)CCNC4=O)c2nc1N(C)C(C)C` [Example 68, 2-(2-methyl-3-(methyl(1-methylethyl)amino)-5-quinoxalinyl)-1,5,6,7-tetrahydro-4H-pyrrolo[3,2-c]pyridin-4-one]: the IC50 was 4.5 nM on Pim-1 (setting [2]), 445 nM in experiment [1] (setting [3]) and 6.1 nM on Pim-2.

`Cc1nc2cccc(-c3cc4c(=O)[nH]cnc4[nH]3)c2nc1NC(C)(C)CO` [Example 263, 6-(3-((1-hydroxy-2-methylpropan-2-yl)amino)-2-methylquinoxalin-5-yl)-3H-pyrrolo[2,3-d]pyrimidin-4(7H)-one]: the figures for the IC50 (at Pim-1 (setting [2]); in experiment [1] (setting [3]); at Pim-2) were 5.1 nM, 907 nM and 5.8 nM, respectively.

Regarding `Cc1nc2cccc(-c3cc4c([nH]3)CCNC4=O)c2nc1NC1CCCC(O)C1` (racemic) [Example 204, 2-(3-((3-hydroxycyclohexyl)amino)-2-methylquinoxalin-5-yl)-6,7-dihydro-1H-pyrrolo[3,2-c]pyridin-4(5H)-one], the results for the IC50 (on Pim-1 (setting [2]); in experiment [1] (setting [3]); at Pim-2) were 2.6 nM, 445 nM and 3.5 nM, respectively.

As for `Cc1nc2cccc(-c3cc4c([nH]3)CCNC4=O)c2nc1N(C)C(C)(C)C` [Example 222, 2-(3-(tert-butyl(methyl)amino)-2-methylquinoxalin-5-yl)-6,7-dihydro-1H-pyrrolo[3,2-c]pyridin-4(5H)-one], the IC50 was found to be 3.5 nM on Pim-1 (setting [2]), 397 nM in experiment [1] (setting [5]) and 2.1 nM at Pim-2.

Take `Cc1nc2cccc(-c3cc4c([nH]3)CCNC4=O)c2nc1NC1(C)CCOCC1` [Example 203, 2-(2-methyl-3-((4-methyltetrahydro-2H-pyran-4-yl)amino)quinoxalin-5-yl)-6,7-dihydro-1H-pyrrolo[3,2-c]pyridin-4(5H)-one]: the half-maximal inhibitory concentration (IC50) on Pim-1 (setting [2]) came out at 1.2 nM; in experiment [1] (setting [3]), 232 nM; on Pim-2, 5.6 nM.

As to `COCC(C)(C)Nc1nc2c(-c3cc4c([nH]3)CCNC4=O)cccc2nc1C` [Example 66, 2-(3-((2-methoxy-1,1-dimethylethyl)amino)-2-methyl-5-quinoxalinyl)-1,5,6,7-tetrahydro-4H-pyrrolo[3,2-c]pyridin-4-one], the results for the half-inhibitory concentration (IC50) (at Pim-1 (setting [2]); in experiment [1] (setting [4]); on Pim-2) were 2.7 nM, 215 nM and 0.7 nM, respectively.

For the molecule `CC(C)(C)Nc1cnc2cccc(-c3cc4c([nH]3)CCNC4=O)c2n1` [Example 210, 2-(3-(tert-butylamino)quinoxalin-5-yl)-6,7-dihydro-1H-pyrrolo[3,2-c]pyridin-4(5H)-one], the IC50 turned out to be 0.2 nM at Pim-1 (setting [2]), 60.1 nM in experiment [1] (setting [3]) and 0.3 nM at Pim-2.

Consider `Cc1nc2cccc(-c3cc4c([nH]3)CCNC4=O)c2nc1N[C@@H](C)C1CC1` [Example 270, 2-(3-(((1S)-1-cyclopropylethyl)amino)-2-methyl-5-quinoxalinyl)-1,5,6,7-tetrahydro-4H-pyrrolo[3,2-c]pyridin-4-one], for which the IC50 on Pim-1 (setting [2]) came to 2.2 nM; in experiment [1] (setting [3]), 215 nM; at Pim-2 it was 1.4 nM.

In the case of `CC1(C)CNCCN1c1cnc2cccc(-c3cc4c([nH]3)CCNC4=O)c2n1` [Example 217, 2-(3-(2,2-dimethylpiperazin-1-yl)quinoxalin-5-yl)-6,7-dihydro-1H-pyrrolo[3,2-c]pyridin-4(5H)-one], the IC50 on Pim-1 (setting [2]) came to 2 nM; in experiment [1] (setting [3]), 933 nM; at Pim-2, 5.3 nM.
